Laboratory results: patent US20260027068A1, “METHODS OF ADM[…]-KETAMINE” (Perception Neuroscience, Inc., priority 2022, published 2026)

System: subjects with TRD
Assay: Modified Observer's Assessment of Alertness/Sedation (MOAA/S)
Experimental: The Investigational Medicinal Product (IMP) R(−)-ketamine hydrochloride in sterile water for intravenous injection was investigated as an […] treatment of TRD. The International Union of Pure and Applied Chemistry (IUPAC) name is of the IMP is (2R)-2-(2-chlorophenyl)-2-(methylamino)cyclohexan-1-one. Subjects received the solution at either 30 mg or 60 mg dose, or a placebo. The IMP or placebo was administered on Day 1 as a single IV infusion via an electronic infusion pump over 40 minutes. The duration of study participation for each subject was up to 29 days including a screening period, a 3-day in-clinic visit, and 2 follow-up visits. 101 subjects were enrolled in approximately 20 study centers in the EU and the US.
The MOAA/S will were to determine if R(−)-ketamine causes the side effect of sedation and to what degree. Sedation was evaluated by the study staff using the MOAA/S. The observer recorded the subject's alertness pre-dose, every 20 minutes for first 2 hours post-dose, and at 4 and 6 hours after the start of the infusion.

[1] = 30 mg, 10 min post start of infusion, n 10
[2] = 30 mg, 20 min post start of infusion, n 33
[3] = 30 mg, 30 min post start of infusion, n 10
[4] = 30 mg, 40 min post start of infusion, n 33
[5] = 30 mg, 50 min post start of infusion, n 10
[6] = 30 mg, 1 hour 10 min post start of infusion, n 10
[7] = 30 mg, 1 hour 20 min post start of infusion, n 33
[8] = 30 mg, 1 hour 30 min post start of infusion, n 10
[9] = 30 mg, 1 hour 40 min post start of infusion, n 33
[10] = 30 mg, 1 hour 50 min post start of infusion, n 10
[11] = 30 mg, 1 hour post start of infusion, n 33
[12] = 30 mg, to 10 min post-start, n 10
[13] = 30 mg, to 20 min post-start, n 33
[14] = 30 mg, to 30 min post-start, n 10
[15] = 30 mg, to 40 min post-start, n 33
[16] = 30 mg, to 50 min post-start, n 10
[17] = 30 mg, to 1 hour 10 min post-start, n 10
[18] = 30 mg, to 1 hour 20 min post-start, n 33
[19] = 30 mg, to 1 hour 30 min post-start, n 10
[20] = 30 mg, to 1 hour 40 min post-start, n 33
[21] = 30 mg, to 1 hour 50 min post-start, n 10
[22] = 30 mg, to 1 hour post-start, n 33
[23] = 60 mg, 10 min post start of infusion, n 11
[24] = 60 mg, 20 min post start of infusion, n 35
[25] = 60 mg, 30 min post start of infusion, n 11
[26] = 60 mg, 40 min post start of infusion, n 35
[27] = 60 mg, 50 min post start of infusion, n 11
[28] = 60 mg, 1 hour 10 min post start of infusion, n 11
[29] = 60 mg, 1 hour 20 min post start of infusion, n 34
[30] = 60 mg, 1 hour 30 min post start of infusion, n 11
[31] = 60 mg, 1 hour 40 min post start of infusion, n 35
[32] = 60 mg, 1 hour 50 min post start of infusion, n 11
[33] = 60 mg, 1 hour post start of infusion, n 35
[34] = 60 mg, to 10 min post-start, n 11
[35] = 60 mg, to 20 min post-start, n 35
[36] = 60 mg, to 30 min post-start, n 11
[37] = 60 mg, to 40 min post-start, n 35
[38] = 60 mg, to 50 min post-start, n 11
[39] = 60 mg, to 1 hour 10 min post-start, n 11
[40] = 60 mg, to 1 hour 20 min post-start, n 34
[41] = 60 mg, to 1 hour 30 min post-start, n 11
[42] = 60 mg, to 1 hour 40 min post-start, n 35
[43] = 60 mg, to 1 hour 50 min post-start, n 11
[44] = 60 mg, to 1 hour post-start, n 35

CN[C@@]1(c2ccccc2Cl)CCCCC1=O.Cl [R(−)-ketamine, (2R)-2-(2-chlorophenyl)-2-(methylamino)cyclohexan-1-one]
Subjects with post-baseline MOASS <5, number (30 mg (n = 33)): 9 n | Subjects with post-baseline MOASS <5, percent (30 mg (n = 33)): (27.3) % | Subjects with post-baseline MOASS <5, number (60 mg (n = 35)): 12 n | Subjects with post-baseline MOASS <5, percent (60 mg (n = 35)): (34.3) %

CN[C@@]1(c2ccccc2Cl)CCCCC1=O [PCN 101]
MOAA/S score, Mean [1]: 5.0 | MOAA/S score, Median [1]: 5.0 | MOAA/S score, Mean [2]: 4.9 | MOAA/S score, Median [2]: 5.0 | MOAA/S score, Mean [3]: 4.9 | MOAA/S score, Median [3]: 5.0 | MOAA/S score, Mean [4]: 4.8 | MOAA/S score, Median [4]: 5.0 | MOAA/S score, Mean [5]: 4.9 | MOAA/S score, Median [5]: 5.0 | MOAA/S score, Mean [6]: 5.0 | MOAA/S score, Median [6]: 5.0 | MOAA/S score, Mean [7]: 4.8 | MOAA/S score, Median [7]: 5.0 | MOAA/S score, Mean [8]: 5.0 | MOAA/S score, Median [8]: 5.0 | MOAA/S score, Mean [9]: 4.9 | MOAA/S score, Median [9]: 5.0 | MOAA/S score, Mean [10]: 5.0 | MOAA/S score, Median [10]: 5.0 | MOAA/S score, Mean [11]: 4.8 | MOAA/S score, Median [11]: 5.0 | MOAA/S score, Mean (30 mg, 2 hours, n 33): 5.0 | MOAA/S score, Median (30 mg, 2 hours, n 33): 5.0 | MOAA/S score, Mean (30 mg, 4 hours, n 31): 5.0 | MOAA/S score, Median (30 mg, 4 hours, n 31): 5.0 | MOAA/S score, Mean (30 mg, 6 hours, n 31): 5.0 | MOAA/S score, Median (30 mg, 6 hours, n 31): 5.0 | MOAA/S change from baseline, Mean [12]: 0.0 | MOAA/S change from baseline, Median [12]: 0.0 | MOAA/S change from baseline, Mean [13]: −0.1 | MOAA/S change from baseline, Median [13]: 0.0 | MOAA/S change from baseline, Mean [14]: −0.1 | MOAA/S change from baseline, Median [14]: 0.0 | MOAA/S change from baseline, Mean [15]: −0.2 | MOAA/S change from baseline, Median [15]: 0.0 | MOAA/S change from baseline, Mean [16]: −0.1 | MOAA/S change from baseline, Median [16]: 0.0 | MOAA/S change from baseline, Mean [17]: 0.0 | MOAA/S change from baseline, Median [17]: 0.0 | MOAA/S change from baseline, Mean [18]: −0.2 | MOAA/S change from baseline, Median [18]: 0.0 | MOAA/S change from baseline, Mean [19]: 0.0 | MOAA/S change from baseline, Median [19]: 0.0 | MOAA/S change from baseline, Mean [20]: −0.1 | MOAA/S change from baseline, Median [20]: 0.0 | MOAA/S change from baseline, Mean [21]: 0.0 | MOAA/S change from baseline, Median [21]: 0.0 | MOAA/S change from baseline, Mean [22]: −0.2 | MOAA/S change from baseline, Median [22]: 0.0 | MOAA/S change from baseline, Mean (30 mg, to 2 hours, n 33): −0.0 | MOAA/S change from baseline, Median (30 mg, to 2 hours, n 33): 0.0 | MOAA/S change from baseline, Mean (30 mg, to 4 hours, n 31): 0.0 | MOAA/S change from baseline, Median (30 mg, to 4 hours, n 31): 0.0 | MOAA/S change from baseline, Mean (30 mg, to 6 hours, n 31): 0.0 | MOAA/S change from baseline, Median (30 mg, to 6 hours, n 31): 0.0 | MOAA/S score, Mean [23]: 4.9 | MOAA/S score, Median [23]: 5.0 | MOAA/S score, Mean [24]: 4.8 | MOAA/S score, Median [24]: 5.0 | MOAA/S score, Mean [25]: 4.9 | MOAA/S score, Median [25]: 5.0 | MOAA/S score, Mean [26]: 4.8 | MOAA/S score, Median [26]: 5.0 | MOAA/S score, Mean [27]: 4.9 | MOAA/S score, Median [27]: 5.0 | MOAA/S score, Mean [28]: 5.0 | MOAA/S score, Median [28]: 5.0 | MOAA/S score, Mean [29]: 4.8 | MOAA/S score, Median [29]: 5.0 | MOAA/S score, Mean [30]: 5.0 | MOAA/S score, Median [30]: 5.0 | MOAA/S score, Mean [31]: 4.8 | MOAA/S score, Median [31]: 5.0 | MOAA/S score, Mean [32]: 5.0 | MOAA/S score, Median [32]: 5.0 | MOAA/S score, Mean [33]: 4.8 | MOAA/S score, Median [33]: 5.0 | MOAA/S score, Mean (60 mg, 2 hours, n 35): 4.8 | MOAA/S score, Median (60 mg, 2 hours, n 35): 5.0 | MOAA/S score, Mean (60 mg, 4 hours, n 32): 4.9 | MOAA/S score, Median (60 mg, 4 hours, n 32): 5.0 | MOAA/S score, Mean (60 mg, 6 hours, n 32): 5.0 | MOAA/S score, Median (60 mg, 6 hours, n 32): 5.0 | MOAA/S change from baseline, Mean [34]: −0.1 | MOAA/S change from baseline, Median [34]: 0.0 | MOAA/S change from baseline, Mean [35]: −0.2 | MOAA/S change from baseline, Median [35]: 0.0 | MOAA/S change from baseline, Mean [36]: −0.1 | MOAA/S change from baseline, Median [36]: 0.0 | MOAA/S change from baseline, Mean [37]: −0.2 | MOAA/S change from baseline, Median [37]: 0.0 | MOAA/S change from baseline, Mean [38]: −0.1 | MOAA/S change from baseline, Median [38]: 0.0 | MOAA/S change from baseline, Mean [39]: 0.0 | MOAA/S change from baseline, Median [39]: 0.0 | MOAA/S change from baseline, Mean [40]: −0.2 | MOAA/S change from baseline, Median [40]: 0.0 | MOAA/S change from baseline, Mean [41]: 0.0 | MOAA/S change from baseline, Median [41]: 0.0 | MOAA/S change from baseline, Mean [42]: −0.2 | MOAA/S change from baseline, Median [42]: 0.0 | MOAA/S change from baseline, Mean [43]: 0.0 | MOAA/S change from baseline, Median [43]: 0.0 | MOAA/S change from baseline, Mean [44]: −0.2 | MOAA/S change from baseline, Median [44]: 0.0 | MOAA/S change from baseline, Mean (60 mg, to 2 hours, n 35): −0.2 | MOAA/S change from baseline, Median (60 mg, to 2 hours, n 35): 0.0 | MOAA/S change from baseline, Mean (60 mg, to 4 hours, n 32): −0.1 | MOAA/S change from baseline, Median (60 mg, to 4 hours, n 32): 0.0 | MOAA/S change from baseline, Mean (60 mg, to 6 hours, n 32): 0.0 | MOAA/S change from baseline, Median (60 mg, to 6 hours, n 32): 0.0
